1 compound from PMC6321145 (Molecules, 2018) can be followed below.

The series is described as follows: Cytotoxicity on SH-SY5Y cells (MTT). Particulars: human, SH-SY5Y neuroblastoma cells; MTT, 24 h; mean ± SEM of three measurements. It is filed as cell-based, human.

For the compound `CCN(CC)c1ccc(/C=C/c2cc(NCCCN(C)C)c3ccccc3n2)cc1` [Compound 6b1, (E)-N^1-(2-(4-(Diethylamino)styryl)quinolin-4-yl)-N^3,N^3-dimethylpropane-1,3-diamine], the midpoint of inhibition, the IC50 at 24 h, lay at 254 µM.
